{
  "source": "patent US20170315129A1",
  "about": "“CANCER CELL DETECTION METHOD USING LIVING BODY-DERIVED CELLS OF BIOLOGICAL ORIGIN” (Hirosaki University, priority 2014, published 2017)",
  "system": "ascites cells obtained during an operation of a patient with ovarian cancer (serous adenocarcinoma)",
  "assay": "Live-cell fluorescence imaging of cells in peritoneal washing, ovarian cancer patient (Example 1)",
  "format": "cell-based, human",
  "settings": "100 μM 2-NBDLG and 20 μM 2TRLG in KRB, 5 minutes 37° C., FIG. 2B",
  "description": "Immediately after the start of laparotomy for ovarian cancer (serous adenocarcinoma), the peritoneal cavity was washed with physiological saline for the purpose of collecting an ascitic fluid. A surplus portion of the resulting peritoneal washing was transferred into a 50 mL centrifuge tube. Subsequently, it was centrifuged at 1500 G for 2 minutes at room temperature, the supernatant was removed by decantation, and the pellet was dispersed by adding 2 mL of Krebs Ringer Buffer (KRB solution, see below) to obtain an ascites-cell suspension.\nNaCl 129.0 mM, KCl 4.75 mM, KH2PO41.19 mM, MgSO4.7H2O 1.19 mM, CaC12.2H2O 1.0 mM, NaHCO35.02 mM, D-Glucose 5.6 mM, HEPES 10.0 mM (an adequate amount of 1M NaOH was added to adjust the pH to 7.35). […]\nFor fluorescence observation, observation and image acquisition were performed as follows after mounting the glass pate on a glass-slide holder dedicated for an all-in-one fluorescence microscope BZ-X700 (Keyence Corporation). […] Bright field images and fluorescence images of the target cells were taken at a high magnification of 40× or 100×. Commercially available filters for BZ-X700 were used for fluorescence detection. A GFP filter for BZ-X (green channel, OP-87763, Ex 470/40 nm, Em 525/50 nm, DM 495 nm) was used for fluorescence observation of 2-NBDLG. […]",
  "data": [
    {"smiles": "O=C[C@@H](Nc1ccc([N+](=O)[O-])c2nonc12)[C@H](O)[C@@H](O)[C@@H](O)CO", "note": "[2-NBDLG, 2-[N-(7-nitrobenz-2-oxa-1,3-diazole-4-yl)amino]-2-deoxy-L-glucose]", "values": [
      {"measurement": "fluorescence from 2-NBDLG (green wavelength region)", "setting": "apparent peritoneal mesothelial cells", "value": "do not show fluorescence"},
      {"measurement": "fluorescence from 2-NBDLG (green wavelength region)", "setting": "morphologically suspected cancer cells", "value": "intense fluorescence"}
    ]}
  ]
}
